We go through 2 compounds from publication PMC12372887, “Mechanism and cellular actions of the potent AMPK inhibitor BAY-3827” (Science Advances, 2025).

What all share (test): Kinase panel (140 human kinases)
Holding throughout (format): biochemical

In one experiment the target is T1, BRSK2 (Homo sapiens, UniProt Q8IWQ3).
T1 sequence (Q8IWQ3 1-736): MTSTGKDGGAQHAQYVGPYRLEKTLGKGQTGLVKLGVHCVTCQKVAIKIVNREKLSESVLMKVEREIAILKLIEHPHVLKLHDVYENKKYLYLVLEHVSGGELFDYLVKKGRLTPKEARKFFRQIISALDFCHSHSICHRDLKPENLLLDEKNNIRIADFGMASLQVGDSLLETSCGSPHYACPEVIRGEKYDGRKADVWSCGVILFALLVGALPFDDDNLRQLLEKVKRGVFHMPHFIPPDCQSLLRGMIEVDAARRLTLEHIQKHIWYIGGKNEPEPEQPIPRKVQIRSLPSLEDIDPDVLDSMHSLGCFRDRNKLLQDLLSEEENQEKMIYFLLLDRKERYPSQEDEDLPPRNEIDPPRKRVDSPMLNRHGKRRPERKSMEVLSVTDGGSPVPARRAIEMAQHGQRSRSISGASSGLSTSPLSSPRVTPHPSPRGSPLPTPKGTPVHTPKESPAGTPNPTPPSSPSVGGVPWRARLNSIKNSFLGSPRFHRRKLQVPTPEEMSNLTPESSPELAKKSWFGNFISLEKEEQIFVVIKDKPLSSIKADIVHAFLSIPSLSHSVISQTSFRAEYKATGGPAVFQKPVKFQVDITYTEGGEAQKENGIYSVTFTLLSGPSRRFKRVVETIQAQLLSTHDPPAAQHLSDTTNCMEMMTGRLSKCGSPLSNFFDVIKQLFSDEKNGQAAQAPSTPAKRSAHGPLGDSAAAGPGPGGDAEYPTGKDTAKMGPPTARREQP
The procedure:
(§1) BAY-3827 and BAY-974 were assayed against a 140-human kinase panel at 0.1 μM and at 1 μM (BAY-3827) concentration in a [γ-^33P] ATP–based radioactive filter binding assay ([31], [65]) setup in duplicates with reported mean remaining kinase percentage activity alongside SD (table S1). Assays were performed at either 5, 20, or 50 μM ATP to be at or below the Michaelis constant for ATP for each enzyme and conducted by the services offered by the International Centre for Kinase Profiling at MRC Protein Phosphorylation and Ubiquitylation Unit, University of Dundee (https://www.kinase-screen.mrc.ac.uk/services/premier-screen).

For a further experiment, the target named is CDK9-Cyclin T1 (Homo sapiens, UniProt P50750). How it is done: as §1
The target in a further experiment is DYRK2 (Homo sapiens, UniProt Q92630). How it is done: as §1
The next experiment has as its target MLK3 (Homo sapiens, UniProt Q16584). How it is done:
as §1

The target of another experiment is T2, NUAK1 (Homo sapiens, UniProt O60285).
T2 sequence (O60285 1-661): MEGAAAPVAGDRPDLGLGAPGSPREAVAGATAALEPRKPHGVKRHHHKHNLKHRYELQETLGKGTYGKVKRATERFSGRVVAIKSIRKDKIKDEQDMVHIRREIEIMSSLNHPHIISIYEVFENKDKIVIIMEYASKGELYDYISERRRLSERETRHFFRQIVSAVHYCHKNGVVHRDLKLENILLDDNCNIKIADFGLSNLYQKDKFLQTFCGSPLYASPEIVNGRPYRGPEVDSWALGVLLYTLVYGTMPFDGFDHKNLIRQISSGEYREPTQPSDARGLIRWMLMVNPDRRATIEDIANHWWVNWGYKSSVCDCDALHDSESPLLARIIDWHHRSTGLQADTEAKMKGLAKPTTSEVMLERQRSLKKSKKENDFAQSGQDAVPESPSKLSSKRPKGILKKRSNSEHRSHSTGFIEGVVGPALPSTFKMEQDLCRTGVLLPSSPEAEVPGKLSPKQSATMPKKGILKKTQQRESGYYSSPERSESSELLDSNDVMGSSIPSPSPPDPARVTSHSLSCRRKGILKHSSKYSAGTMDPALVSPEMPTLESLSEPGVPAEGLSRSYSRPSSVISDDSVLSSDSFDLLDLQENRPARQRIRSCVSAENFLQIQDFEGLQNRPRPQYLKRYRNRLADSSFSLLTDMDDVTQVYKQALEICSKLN
How it is done: as §1

A further experiment has as its target RIPK2 (Homo sapiens, UniProt O43353). The procedure: as §1
The target in a further experiment is T3, ULK1 (Homo sapiens, UniProt O75385).
T3 sequence (O75385 1-1050): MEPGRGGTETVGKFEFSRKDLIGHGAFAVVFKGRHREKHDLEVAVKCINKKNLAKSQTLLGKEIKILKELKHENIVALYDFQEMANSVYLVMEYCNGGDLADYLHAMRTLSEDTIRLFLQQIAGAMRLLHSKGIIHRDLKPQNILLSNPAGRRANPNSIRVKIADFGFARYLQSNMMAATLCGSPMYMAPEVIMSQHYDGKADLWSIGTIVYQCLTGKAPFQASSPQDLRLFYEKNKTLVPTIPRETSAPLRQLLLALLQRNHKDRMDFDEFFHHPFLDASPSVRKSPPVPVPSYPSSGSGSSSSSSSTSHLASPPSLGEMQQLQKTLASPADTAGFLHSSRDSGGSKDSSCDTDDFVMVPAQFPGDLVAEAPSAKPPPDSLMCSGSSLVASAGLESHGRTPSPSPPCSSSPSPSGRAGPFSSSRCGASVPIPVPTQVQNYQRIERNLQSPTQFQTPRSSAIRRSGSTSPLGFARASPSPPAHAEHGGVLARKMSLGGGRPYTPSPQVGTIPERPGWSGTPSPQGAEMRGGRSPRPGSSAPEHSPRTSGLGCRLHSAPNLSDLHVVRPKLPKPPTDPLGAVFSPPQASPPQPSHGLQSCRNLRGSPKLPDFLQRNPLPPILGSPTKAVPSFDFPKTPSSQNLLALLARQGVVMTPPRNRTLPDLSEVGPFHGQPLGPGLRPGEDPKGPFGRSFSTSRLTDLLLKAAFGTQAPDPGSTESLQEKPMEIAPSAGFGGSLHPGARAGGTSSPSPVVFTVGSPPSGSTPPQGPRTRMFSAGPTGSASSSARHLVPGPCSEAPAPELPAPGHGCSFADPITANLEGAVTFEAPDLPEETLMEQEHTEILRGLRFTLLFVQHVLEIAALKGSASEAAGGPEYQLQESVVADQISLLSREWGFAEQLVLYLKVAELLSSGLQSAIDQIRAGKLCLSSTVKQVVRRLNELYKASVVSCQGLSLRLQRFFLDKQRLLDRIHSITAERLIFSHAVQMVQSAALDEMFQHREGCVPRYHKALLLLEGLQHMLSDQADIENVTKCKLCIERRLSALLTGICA
How it is done: as §1

In a further experiment the target is p38a MAPK (Homo sapiens, UniProt Q16539). How it is done:
as §1

[1] abbreviates: 1 μM, cross-referenced with screen data of ref 37, read-out: activity remaining after treatment.

Structures are written as SMILES.

Sequence of p38a MAPK (Q16539 whole entry): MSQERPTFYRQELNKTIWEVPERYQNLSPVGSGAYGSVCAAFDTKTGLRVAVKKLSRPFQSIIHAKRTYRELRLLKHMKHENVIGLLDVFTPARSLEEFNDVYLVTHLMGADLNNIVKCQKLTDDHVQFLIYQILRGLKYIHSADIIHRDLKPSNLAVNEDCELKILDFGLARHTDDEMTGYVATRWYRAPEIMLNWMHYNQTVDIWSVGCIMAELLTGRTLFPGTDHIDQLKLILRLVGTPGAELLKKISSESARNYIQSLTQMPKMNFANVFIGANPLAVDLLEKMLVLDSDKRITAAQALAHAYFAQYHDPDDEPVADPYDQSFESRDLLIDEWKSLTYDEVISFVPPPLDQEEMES
Sequence of CDK9-Cyclin T1 (P50750 whole entry): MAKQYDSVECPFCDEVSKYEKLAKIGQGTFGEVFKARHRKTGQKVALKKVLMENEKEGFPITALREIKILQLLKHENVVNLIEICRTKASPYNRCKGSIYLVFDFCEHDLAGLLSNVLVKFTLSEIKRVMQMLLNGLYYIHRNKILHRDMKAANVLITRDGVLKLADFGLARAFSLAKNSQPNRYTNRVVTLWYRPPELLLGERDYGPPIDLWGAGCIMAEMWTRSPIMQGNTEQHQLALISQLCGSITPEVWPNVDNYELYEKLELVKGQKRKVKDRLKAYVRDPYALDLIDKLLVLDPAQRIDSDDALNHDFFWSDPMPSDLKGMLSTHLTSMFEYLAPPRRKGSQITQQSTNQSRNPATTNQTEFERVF
Sequence of CDK9-Cyclin T1 (O60563 whole entry partner): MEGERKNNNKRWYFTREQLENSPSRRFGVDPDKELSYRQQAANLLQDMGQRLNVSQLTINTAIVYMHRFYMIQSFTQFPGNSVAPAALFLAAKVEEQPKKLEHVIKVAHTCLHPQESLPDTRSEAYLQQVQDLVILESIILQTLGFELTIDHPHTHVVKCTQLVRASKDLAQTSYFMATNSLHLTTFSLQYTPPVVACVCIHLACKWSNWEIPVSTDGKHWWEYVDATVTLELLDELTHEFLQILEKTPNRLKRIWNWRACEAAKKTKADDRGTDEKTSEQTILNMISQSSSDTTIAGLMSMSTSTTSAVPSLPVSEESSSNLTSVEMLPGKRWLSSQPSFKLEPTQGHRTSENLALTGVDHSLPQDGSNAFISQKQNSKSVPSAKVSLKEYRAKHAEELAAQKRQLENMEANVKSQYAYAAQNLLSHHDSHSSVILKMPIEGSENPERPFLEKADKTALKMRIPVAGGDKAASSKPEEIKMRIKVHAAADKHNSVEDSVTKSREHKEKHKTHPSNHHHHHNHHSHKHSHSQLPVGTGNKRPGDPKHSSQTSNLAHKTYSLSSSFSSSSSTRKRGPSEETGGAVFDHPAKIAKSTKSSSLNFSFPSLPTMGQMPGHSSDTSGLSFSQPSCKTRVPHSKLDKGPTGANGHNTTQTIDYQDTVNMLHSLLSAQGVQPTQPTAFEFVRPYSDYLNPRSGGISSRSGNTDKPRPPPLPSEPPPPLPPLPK
Sequence of DYRK2 (Q92630 whole entry): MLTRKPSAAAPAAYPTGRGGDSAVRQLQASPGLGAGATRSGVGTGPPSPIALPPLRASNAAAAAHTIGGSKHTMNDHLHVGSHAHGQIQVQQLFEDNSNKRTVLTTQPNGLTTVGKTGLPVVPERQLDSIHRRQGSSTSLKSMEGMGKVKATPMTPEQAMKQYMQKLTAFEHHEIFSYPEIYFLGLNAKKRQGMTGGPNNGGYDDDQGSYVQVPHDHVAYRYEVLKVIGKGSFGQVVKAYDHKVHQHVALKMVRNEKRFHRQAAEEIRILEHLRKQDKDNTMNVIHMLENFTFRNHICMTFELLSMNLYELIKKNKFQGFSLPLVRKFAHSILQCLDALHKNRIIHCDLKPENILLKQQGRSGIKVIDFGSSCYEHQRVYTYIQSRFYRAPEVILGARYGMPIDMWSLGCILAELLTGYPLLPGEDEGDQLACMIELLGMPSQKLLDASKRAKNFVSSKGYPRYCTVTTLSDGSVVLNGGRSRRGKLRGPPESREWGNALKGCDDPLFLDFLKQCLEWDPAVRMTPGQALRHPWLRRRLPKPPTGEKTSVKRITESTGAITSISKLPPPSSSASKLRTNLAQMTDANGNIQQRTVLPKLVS
Sequence of MLK3 (Q16584 whole entry): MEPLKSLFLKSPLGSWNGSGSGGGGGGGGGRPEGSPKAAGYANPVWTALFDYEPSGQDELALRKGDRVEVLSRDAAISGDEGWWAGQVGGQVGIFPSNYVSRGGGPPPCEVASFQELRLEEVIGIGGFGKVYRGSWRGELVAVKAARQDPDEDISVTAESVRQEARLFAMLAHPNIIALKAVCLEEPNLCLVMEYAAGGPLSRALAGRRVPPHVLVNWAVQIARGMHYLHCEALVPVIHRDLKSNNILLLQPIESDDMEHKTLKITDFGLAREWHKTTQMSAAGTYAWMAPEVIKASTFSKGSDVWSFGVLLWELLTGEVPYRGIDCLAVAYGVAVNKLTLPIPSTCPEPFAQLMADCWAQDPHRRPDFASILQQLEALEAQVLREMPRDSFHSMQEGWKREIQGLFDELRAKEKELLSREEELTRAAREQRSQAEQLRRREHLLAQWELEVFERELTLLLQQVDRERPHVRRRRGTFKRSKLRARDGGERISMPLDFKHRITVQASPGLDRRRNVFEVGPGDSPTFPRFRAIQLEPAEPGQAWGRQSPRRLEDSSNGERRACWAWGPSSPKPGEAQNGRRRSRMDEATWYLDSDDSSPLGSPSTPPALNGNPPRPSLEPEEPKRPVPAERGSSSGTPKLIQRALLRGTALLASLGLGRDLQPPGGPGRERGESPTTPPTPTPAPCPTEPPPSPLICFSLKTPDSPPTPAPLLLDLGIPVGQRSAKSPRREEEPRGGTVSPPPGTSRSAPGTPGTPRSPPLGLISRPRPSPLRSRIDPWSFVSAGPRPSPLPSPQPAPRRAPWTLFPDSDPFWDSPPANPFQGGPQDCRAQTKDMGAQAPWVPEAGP
Sequence of RIPK2 (O43353 whole entry): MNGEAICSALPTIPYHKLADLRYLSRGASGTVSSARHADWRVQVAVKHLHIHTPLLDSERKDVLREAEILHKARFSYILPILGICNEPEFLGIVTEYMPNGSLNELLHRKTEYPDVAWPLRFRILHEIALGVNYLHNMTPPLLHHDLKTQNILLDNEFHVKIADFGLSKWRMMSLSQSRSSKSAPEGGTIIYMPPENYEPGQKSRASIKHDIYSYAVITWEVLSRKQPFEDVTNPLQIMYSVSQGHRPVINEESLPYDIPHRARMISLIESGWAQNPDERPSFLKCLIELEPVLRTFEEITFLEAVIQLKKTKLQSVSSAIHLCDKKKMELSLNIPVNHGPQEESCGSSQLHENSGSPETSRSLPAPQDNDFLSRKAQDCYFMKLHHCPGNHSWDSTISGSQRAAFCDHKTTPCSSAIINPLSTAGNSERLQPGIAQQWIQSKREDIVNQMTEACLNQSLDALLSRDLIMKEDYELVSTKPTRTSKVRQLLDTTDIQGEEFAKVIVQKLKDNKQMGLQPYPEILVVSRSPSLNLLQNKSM

`CC1=C(C#N)C(c2ccc3c(c2)c(NC(=O)c2ccccc2C)nn3C)C(C#N)=C(C)N1` [BAY-974, N-[5-(3,5-dicyano-2,6-dimethyl-1,4-dihydropyridin-4-yl)-1-methylindazol-3-yl]-2-methylbenzamide]: the remaining activity (in general, the signal under treatment as a percentage of the control signal) at 0.1 µM on BRSK2 is 112%; on CDK9-Cyclin T1 it was 114%; on DYRK2, 79%; on MLK3, 90%; on NUAK1 it was 60%; at RIPK2, 108%. In addition, the remaining activity at 0.1 µM at ULK1 was at most 50%; at p38a MAPK, 108%. For the same compound, the inhibition (commonly the relative decrease from the control value, in per cent) at 0.1 µM at ULK1 is 55 to 90%.
As for `CCc1ccccc1C(=O)Nc1n[nH]c2c(C)c(F)c(C3C(C#N)=C(C)N(C)C(C)=C3C#N)cc12` [BAY-3827, N-[5-(3,5-dicyano-1,2,6-trimethyl-4H-pyridin-4-yl)-6-fluoro-7-methyl-1H-indazol-3-yl]-2-ethylbenzamide], the remaining activity at 0.1 µM was 82% on BRSK2; 97% at CDK9-Cyclin T1; 89% on DYRK2; 85% at MLK3; 68% at NUAK1; 102% at RIPK2. Further, the remaining activity at 0.1 µM on ULK1 turned out to be 88%; on p38a MAPK, 97%. Also, the remaining activity at 1 µM at BRSK2 (setting [1]) and at NUAK1 (setting [1]) was at most 50% throughout.
